In US8470834B2, “AZO-substituted pyridine and pyrimidine derivatives and their use in treating viral infections” (Merck Sharp & Dohme Corp., priority 2008, dated 2013):

What was measured:
HCV replicon cells = assay: Cell-based HCV Replicon Assay; conditions: Hepatitis C virus, 72 h; replicon RNA level by real time PCR (Taqman), day 3; EC90 = concentration to achieve ΔCT=3.2 over baseline
Method: Assays Cell-based HCV Replicon Assay
To measure cell-based anti-HCV activity of the compounds of the present invention, replicon cells were seeded at 5000 cells/well in 96-well collagen I-coated Nunc plates in the presence of the compound of the invention. […] The final concentration of DMSO was 0.5%, fetal bovine serum was 10%, in the assay media. […] The replicon RNA level was measured using real time PCR (Taqman assay). The amplicon was located in 5B. The
GAPDH RNA was used as endogenous control and was amplified in the same reaction as NS5B (multiplex PCR) using primers and VIC-labeled probe recommended by the manufacturer (PE Applied Biosystem). The real-time RT-PCR reactions were run on ABI PRISM 7900HT Sequence Detection System using the following program: 48° C. for 30 min, 95° C. for 10 min, 40 cycles of 95° C. for 15 sec, 60° C. for 1 min. The ΔCT values (CT5B-CTGAPDH) were plotted against the concentration of test compound and fitted to the sigmoid dose-response model using GraphPad PRISM software. EC50 was defined as the concentration of inhibitor necessary to achieve ΔCT=1 over the projected baseline; EC90 the concentration necessary to achieve ΔCT=3.2 over the baseline. Alternatively, to quantitate the absolute amount of replicon RNA, a standard curve was established by including serially diluted T7 transcripts of replicon RNA in the Taqman assay. […]

## Nc1nc(Cl)c(/N=N/c2ccc(Cl)cc2)c(N[C@@H]2C[C@H](CO)[C@@H](O)C2)n1 (racemic) [Compound 8, Cyclopentanemethanol, 4-[[2-amino-6-chloro-5-[(4-chlorophenyl)azo]-4-pyrimidinyl]amino]-2-hydroxy-, cis, trans—(+−)—]
HCV replicon cells
  EC90: > 5 µM

## Nc1nc(Cl)c(/N=N/c2ccc(Cl)cc2)c(N[C@H]2C[C@@H](CO)[C@H](O)[C@@H]2O)n1 [Compound 11, (1S,2R,3S,5S)-3-[[2-amino-6-chloro-5-[(4-chlorophenyl)azo]-4-pyrimidinyl]amino]-5-(hydroxymethyl)-1,2-cyclopentanediol]
other
  melting point: 238 to 241 °C (dec.)
